Read-outs that look alike come from different tables or passages of the source.
Columns and labels:
[1] = system: MDR1-MDCK cells; assay: MDR1-MDCK effective efflux assay (Transwell, 10 μM, 1 hour), MDR1-MDCK cells; format: in vitro ADME; conditions: for MDR1 EER / MDR1 ER: MDCK-MDR1; for Papp AB MDR1: MDR1-MDCK cells, apical to basolateral (A>B), 10 μM, 1 hour
Method: (§1) The MDR1-MDCK effective efflux assay was performed as described in the BioFocus Standard Operating Procedure, ADME-SOP-56. Both wild-type (WT) and MDR1-MDCK cells (Solvo Biotechnology) were seeded onto 24-well Transwell plates at 2.35×10^5 cells per well and used in confluent monolayers after a 3 day culture at 37° C. under 5% CO2. For both cell types, test and control compounds (propranolol, vinblastine) were added (10 μM, 0.1% DMSO final, n=2) to donor compartments of the Transwell plate assembly in assay buffer (Hanks balanced salt solution supplemented with 25 mM HEPES, adjusted to pH 7.4) for both apical to basolateral (A>B) and basolateral to apical (B>A) measurements. Incubations were performed at 37° C., with samples removed from both donor and acceptor chambers at T=0 and 1 hour and compound analysed by mass spectrometry (LC-MS/MS) including an analytical internal standard.
(§2) Where V is the volume of each Transwell compartment (apical 125 basolateral 600 and concentrations are the relative MS responses for compound (normalized to internal standard) in the donor chamber before incubation and acceptor chamber at the end of the incubation. Area=area of cells exposed for drug transfer (0.33 cm2).
(§3) Efflux ratios (Papp B>A/Papp A>B) were calculated for each compound from the mean Papp values in each direction for both wild-type and MDR1-MDCK cells.
(§4) In order to confirm the involvement of MDR1 in any efflux seen, an “effective efflux ratio” (EER) was calculated by comparing compound efflux ratios (ER) in the two cell types, i.e. EER=ER(MDR1−MDCK)/ER(wild-type MDCK)
(§5) This ratio illustrates the effect of the over-expressed MDR1 normalised for the background movement of compound through the wild-type cells.
(§6) Lucifer Yellow (LY) was added to the apical buffer in all wells to assess viability of the cell layer. Compound recovery from the wells was determined from MS responses (normalized to internal standard) in donor and acceptor chambers at the end of incubation compared to response in the donor chamber pre-incubation.

[2] = system: MDR1 (P-glycoprotein); assay: as above; format: in vitro ADME; conditions: dog
Method: as §1, §2, §3, §4, §5, §6

[3] = MDR1-MDCK effective efflux assay (Transwell, 10 μM, 1 hour), wild-type MDCK cells; format: in vitro ADME; conditions: dog, MDCK
Method: as §1, §2, §3, §4, §5, §6

[4] = system: wild-type (WT) MDCK cells; assay: as above; format: in vitro ADME; conditions: for WT ER: MDCK; for Papp AB WT: wild-type MDCK cells, apical to basolateral (A>B), 10 μM, 1 hour
Method: as §1, §2, §3, §4, §5, §6

[5] = biological target: human Arginine Vasopressin Receptor 1a (AVPR1a) (Homo sapiens (Human), UniProt P37288); assay: Vasopressin V1A receptor antagonist assay (AVP-evoked calcium, FLIPR, CHO-AVPR1a cells); format: cell-based; conditions: read-out: V1a IC50
Summary of the method: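 Antagonism measured as reduction of AVP (EC80, set each assay day) calcium response on FLIPR in dye-loaded CHO-AVPR1a cells. Compounds, 3 μM top in 10-point 1:3 dilution, in duplicate, added 15 min before agonist at 37° C.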

[6] = biological target: human Oxytocin Receptor (hOTR) (Homo sapiens (Human), UniProt P30559); assay: Oxytocin receptor antagonist assay (oxytocin-evoked calcium, FLIPR, CHEM-1-hOTR cells); format: cell-based; conditions: read-out: OT IC50
Method: This assay was performed in CHEM-1 cells expressing the human Oxytocin Receptor (hOTR) to determine the inhibitory effect of the compounds of the invention on the human Oxytocin receptor. Oxytocin evokes an increase in intracellular calcium in CHEM-1-hOTR cells which is measured in a fluorescence assay on the FLIPR^TETRA using calcium sensitive dyes. Test compounds were assessed for their ability to affect the magnitude of the response to oxytocin, with antagonists showing a concentration-dependent reduction in the oxytocin-mediated fluorescence.
CHEM-1-hOTR ready was used to assay frozen cells (Eurofins #HTS090RTA) which are supplied with a proprietary Media Component.
Cells were thawed in a 37° C. water bath and diluted with the supplied Media Component to a final volume of 10 ml. The cell suspension was centrifuged at 1000 rpm for 3 min at room temperature and the supernatant was discarded. The cell pellet was resuspended in Media Component (10.5 ml) and the cells (25 μL) were dispensed into a poly-D-lysine coated black, clear bottomed, 384-well plate. The plates were incubated overnight at 37° C., 5% CO2.
At the start of each assay day the potency of oxytocin was assessed and an EC80 concentration was determined for subsequent compound profiling. Assays were performed using a two-step addition protocol on the FLIPR^TETRA; first addition of 5 μl of control or test compound at 10× final in assay buffer with 15 min incubation at 37° C., 5% CO2 followed by 10 μl of oxytocin at 6× final concentration in assay buffer. Changes in fluorescence were monitored for 3 min after both additions on the FLIPR^TETRA using 470-495 nm excitation and 515-575 nm emission wavelengths. The assay buffer consisted of HBSS (+Ca/+Mg) supplemented with 20 mM HEPES, and for the preparation of the oxytocin agonist only, 0.1% w/v bovine serum albumin. The assay was initiated by the removal of growth media from the cells and replaced with 45 μl of Calcium-6 dye (Molecular Devices) prepared at 1× in assay buffer. Cells were loaded with dye for 60-90 min at 37° C., 5% CO2 before initiation of the FLIPR^TETRA protocol. […] For compound profiling, test compounds were first serially diluted in DMSO (10-point curve, 1:3 dilutions) then diluted 33.3-fold in assay buffer prior to addition to the dye loaded cells on the FLIPR^TETRA. At the end of the incubation period 10 μl of oxytocin in assay buffer containing 0.1% BSA was added at the previously determined EC80 concentration.
In-plate controls for the assay include a L-368,899 concentration-response curve as the reference OTR antagonist and an oxytocin concentration-response curve to confirm the reproducibility of the EC80 used for the compound challenge.

[7] = MDCK-MDR1, pH 7.4, Papp AB MDR1
[8] = MDCK-MDR1, pH 7.4, MDR1-MDCK cells, apical to basolateral (A>B), 10 μM, 1 hour, read-out: Papp AB MDR1
[9] = pH 7.4, wild-type MDCK cells, apical to basolateral (A>B), 10 μM, 1 hour, read-out: Papp AB WT

Sequence of human Arginine Vasopressin Receptor 1a (AVPR1a) (P37288 whole entry): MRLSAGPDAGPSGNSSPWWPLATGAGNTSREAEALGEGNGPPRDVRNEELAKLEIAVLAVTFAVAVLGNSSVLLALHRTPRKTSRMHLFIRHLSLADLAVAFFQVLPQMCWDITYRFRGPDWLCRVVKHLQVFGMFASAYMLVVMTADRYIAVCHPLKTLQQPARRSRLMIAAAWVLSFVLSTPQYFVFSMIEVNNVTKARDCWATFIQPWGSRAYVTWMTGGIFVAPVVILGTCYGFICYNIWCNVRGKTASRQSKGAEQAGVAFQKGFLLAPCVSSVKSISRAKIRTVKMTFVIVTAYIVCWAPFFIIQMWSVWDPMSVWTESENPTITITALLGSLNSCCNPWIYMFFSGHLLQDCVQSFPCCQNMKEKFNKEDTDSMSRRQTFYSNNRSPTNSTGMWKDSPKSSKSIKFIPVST
Sequence of human Oxytocin Receptor (hOTR) (P30559 whole entry): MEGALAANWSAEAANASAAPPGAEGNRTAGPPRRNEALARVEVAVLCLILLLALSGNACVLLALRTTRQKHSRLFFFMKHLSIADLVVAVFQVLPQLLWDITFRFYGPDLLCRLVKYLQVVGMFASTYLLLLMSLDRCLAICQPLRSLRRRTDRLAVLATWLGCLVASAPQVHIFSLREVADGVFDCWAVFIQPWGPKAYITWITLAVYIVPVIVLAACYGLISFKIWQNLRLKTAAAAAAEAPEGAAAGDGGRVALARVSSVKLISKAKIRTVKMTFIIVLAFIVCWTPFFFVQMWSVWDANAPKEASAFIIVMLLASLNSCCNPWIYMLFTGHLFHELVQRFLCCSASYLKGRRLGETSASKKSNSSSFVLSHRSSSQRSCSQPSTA

SMILES | MDR1 EER [1] | MDR1 ER [1] | Papp A→B at 1 h, 10 μM [2, 7] [×10⁻⁶ cm/s] | Papp A→B at 1 h, 10 μM ([3]; pH 7.4, Papp AB WT) [×10⁻⁶ cm/s] | WT ER [4] | IC50 [5] [nM] | Papp AB WT [4] | IC50 [6] [nM] | Papp A→B at 1 h, 10 μM [2, 8] [×10⁻⁶ cm/s] | Papp A→B at 1 h, 10 μM [3, 9] [×10⁻⁶ cm/s] | Papp AB MDR1 [1]
CC1c2nnc(C3CC4(C3)CN(c3ccc(F)cn3)C4)n2-c2ccc(Cl)cc2CN1C (stereo not drawn) [compound 179] | ++ | + | > 20 | > 20 | +++ | 100 to 500 |  |  |  |  | 
CC1c2nnc(C3CC4(C3)CN(c3ccc(F)cn3)C4)n2-c2ccc(Cl)cc2CN1C(=O)OC(CF)CF (stereo not drawn) [compound 203] | +++ | ++ | 10 to 20 | > 20 | +++ |  |  |  |  |  | 
CC1c2nnc(C3CC4(C3)CN(c3ncc(F)cn3)C4)n2-c2ccc(Cl)cc2CN1C(=O)OC(CF)CF (single isomer, unassigned) [Cpd 194A] |  |  |  |  |  | < 100 | ++++ ((++++) denotes >20 (10^-6 cm/sec)) |  |  |  | 
O=C(C1CC1)N1CC2(CC(c3nnc4n3-c3ccc(Cl)cc3CN(C(=O)C(F)(F)F)C4)C2)C1 [compound 137] | + | + | < 7 | < 7 | + | < 100 |  |  |  |  | 
CC(C)OC(=O)N1Cc2cc(Cl)ccc2-n2c(nnc2C2CC3(C2)CN(c2ccc(F)cn2)C3)C1 [compound 111] |  |  |  |  |  | < 100 |  | 100 to 500 | > 20 | > 20 | 
CN1Cc2cc(Cl)ccc2-n2c(nnc2C2CC3(C2)CN(C(=O)C2(F)CC2)C3)C1 [compound 36] | + | + | < 7 | 10 to 20 | ++ | < 100 |  |  |  |  | 
COC(=O)N1Cc2cc(Cl)ccc2-n2c(nnc2C2CC3(C2)CN(c2ncccn2)C3)C1 [compound 95] |  |  |  |  |  | < 100 |  | 500 to 1000 | < 7 | > 20 | 
CC1c2nnc(C3CC4(C3)CN(c3ccc(F)cn3)C4)n2-c2ccc(Cl)cc2CN1C(=O)OC1CCC1 (stereo not drawn) [compound 195] | ++++ | +++ | > 20 | 10 to 20 | +++ |  |  |  |  |  | 
COc1ccc2c(c1)CN(C)Cc1nnc(C3CC4(C3)CN(c3cnccn3)C4)n1-2 [compound 19] | + | + | < 7 | > 20 | +++ |  |  |  |  |  | 
COC(=O)N1Cc2cc(Cl)ccc2-n2c(C3CC4(C3)CN(c3ccncn3)C4)nnc2C1C (single isomer, unassigned) [Cpd 184A] |  |  |  |  |  | < 100 | ++++ ((++++) denotes >20 (10^-6 cm/sec)) |  |  |  | 
O=C(C1COC1)N1Cc2cc(Cl)ccc2-n2c(nnc2C2CC3(C2)CN(c2ccc(F)cn2)C3)C1 [compound 160] | + | + | < 7 | < 7 | + | < 100 |  |  |  |  | 
CC(C)OC(=O)N1Cc2cc(Cl)ccc2-n2c(C3CC4(C3)CN(c3ccncn3)C4)nnc2C1C (stereo not drawn) [compound 187] |  | ++ | > 20 | > 20 | ++++ | 100 to 500 |  |  |  |  | 
CC1c2nnc(C3CC4(C3)CN(c3ccc(F)cn3)C4)n2-c2ccc(Cl)cc2CN1C(=O)C(F)F (stereo not drawn) [compound 176] | + | + | 7 to 10 | > 20 | ++++ | < 100 |  |  |  |  | 
CC(C)OC(=O)N1Cc2cc(Cl)ccc2-n2c(C3CC4(C3)CN(c3ccc(F)cn3)C4)nnc2C1C (stereo not drawn) [compound 163] | +++ | +++ | > 20 | > 20 | ++++ | < 100 |  |  |  |  | 
COC(=O)N1Cc2cc(Cl)ccc2-n2c(nnc2C2CC3(C2)CN(c2cccc(C)n2)C3)C1 [compound 115] | + | + | 10 to 20 | > 20 | +++ | < 100 |  |  |  |  | 
CC1c2nnc(C3CC4(C3)CN(c3ncccn3)C4)n2-c2ccc(Cl)cc2CN1C(=O)OC(CF)CF (single isomer, unassigned) [Cpd 202B] |  |  |  |  |  | > 1000 | ++++ ((++++) denotes >20 (10^-6 cm/sec)) | > 1000 |  |  | + ((+) denotes an apparent permeability <7 (10^-6 cm/sec))
COC(=O)N1Cc2cc(Cl)ccc2-n2c(nnc2C2CC3(C2)CN(C(=O)C2CC2)C3)C1 [compound 162] | + | + | < 7 | < 7 | + | < 100 |  |  |  |  | 
CC(C)OC(=O)N1Cc2cc(Cl)ccc2-n2c(nnc2C2CC3(C2)CN(c2ncncc2F)C3)C1 [compound 185] |  |  |  |  |  | < 100 |  | 500 to 1000 | > 20 | > 20 | 
CCOC(=O)N1Cc2cc(Cl)ccc2-n2c(C3CC4(C3)CN(c3ncc(F)cn3)C4)nnc2C1C (single isomer, unassigned) [Cpd 172A] |  |  |  |  |  | < 100 | ++++ ((++++) denotes >20 (10^-6 cm/sec)) |  |  |  | ++++ ((++++) denotes >20 (10^-6 cm/sec))
COC(=O)N1Cc2cc(Cl)ccc2-n2c(nnc2C2CC3(C2)CN(c2cccc(C#N)n2)C3)C1 [compound 91, methyl 8-chloro-1-(2-(6-cyanopyridin-2-yl)-2-azaspiro[3.3]heptan-6-yl)-4H-benzo[f][1,2,4]triazolo[4,3-a][1,4]diazepine-5(6H)-carboxylate] |  |  |  |  |  | < 100 |  | 500 to 1000 | < 7 | > 20 | 
COC(=O)N1Cc2cc(Cl)ccc2-n2c(nnc2C2CC3(C2)CN(c2cccnn2)C3)C1 [compound 75] | + | + | < 7 | 10 to 20 |  | < 100 |  |  |  |  | 
CC1c2nnc(C3CC4(C3)CN(c3ncccn3)C4)n2-c2ccc(Cl)cc2CN1C(=O)OC(CF)CF (stereo not drawn) [compound 202] | + | + | < 7 | > 20 | ++++ |  |  |  |  |  | 
